In patent publication US20080103191A1, “ENTACAPONE-DERIVATIVES” (priority 2006, published 2008):
Values after ≈ are worked out from the molar mass of the structure shown. Read-outs that look alike come from different tables or passages of the source.

Key:
[1] = Log D (pH 7.4) by isocratic HPLC; assay type: physicochemical; details: YMC Pro C18 column, phosphate buffer pH 7.4/acetonitrile 45/55
Summary of the method: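 Retention measured by isocratic HPLC on a C18 column (150 mm×4.0 mm, 3 μm) eluted with phosphate buffer pH 7.4/acetonitrile 45/55 (v/v) at 1.2 ml/min, run time 15-60 min. Detection at 220 nm.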

[2] = Chemical hydrolysis stability at pH 1 and pH 7.4 (HPLC); assay type: physicochemical; details: 37° C., over 12 h
Summary of the method: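 Compound dissolved in 0.1 N HCl or PBS and held at 37° C over 12 h, sampling at set intervals for remaining prodrug by reversed-phase C8 HPLC with 220 nm detection. Peak areas expressed relative to first injection, ln-plotted against time; t1/2 [h] derived assuming first-order kinetics.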

[3] = Solubility in Labrasol and TPGS/PG formulations; assay type: physicochemical
Experimental: Selected lipophilic carbonate compounds of formula I with promising Caco-2 permeabilities are formulated with different lipids/lipophilic excipients and/or micelles forming compounds in order to increase their solubilities. The following formulations are prepared by mixing the ingredients mentioned below: • i) Formulations comprising solubilizers in the form of lipides/lipophilic excipients: • ia) Formulation comprising Labrasol® and the selected compounds of Formula I • Labrasol®: • Caprylocaproyl macrogol-8-glyceride (CAS No. 85536-07-8 and 84963-88-2). This is a mixture of mono-, di- and triesters of glycerol and of PEG 400 with medium-chain fatty acids (C8-C10) which is marketed, for example, by Gattefossé under the mark Labrasol®; Labrasol® has an HLB value (hydrophil-lipophil-balance, Griffin, W. C.: Classification of surface active agents by HLB, J. Soc. Cosmet. 1, 1949) of 14 and has the following composition by weight:
• ib) Formulation comprising NanoSolve® 5401 (Lipoid GmbH, Germany) and the selected compounds of formula I • ic) Formulation comprising TPGS/PG in a weight ratio of 25% by weight of TPGS to 75% by weight of PG and the selected compounds of formula I. • PG: propylene glycol • TPGS: Vitamin E TPGS NF (d-α-tocopheryl polyethylene glycol 1000 succinate) which is marketed, for example, by Eastman Chemical Co • ii) Formulation comprising a micelles forming agent: • iia) Aqueous formulation comprising 30% by weight of Cremophor® RH 40 (relating to the weight of the aqueous phase) in water and the selected compounds of formula I • Cremophor® RH 40: • Generic names: • Polyoxyl 40 Hydrogenated Castor Oil (USP/NF). • Macrogol-Glycerolhydroxystearat (DAB). • Polyoxyethylenglyceroltrihydroxystearat (DAC). • Cremophor RH 40 is a non-ionic solubilizer and emulsifying agent obtained by reacting 45 moles of ethylene oxide with 1 mole of hydrogenated castor oil. The main constituent of Cremophor RH 40 is glycerol polyethylene glycol oxystearate, which, together with fatty acid glycerol polyglycol esters, forms the hydrophobic part of the product. The hydrophilic part consists of polyethylene glycols and glycerol ethoxylate. Cremophor RH 40 is a white to yellowish thin paste at 20° C. The HLB value lies between 14 and 16. Cremophor RH 40 is marketed by BASF AG.
The solubility of selected compounds of formula I in these formulations is measured and compared to the solubility of the compounds in 0.1N HCl (pH 1.0), PBS buffer (pH 7.4), and two simulated gastric fluids (i.e., FaSSIF (pH 6.5) simulating fasting sate and FeSSIF (pH 5.0) simulating fed state) (see above for details).

[4] = Pharmacokinetic profile of compound 15 in Labrasol, TPGS/PG or phosphate buffer in rats; assay type: in vivo, Male Sprague-Dawley rats; details: oral 10 mg/kg entacapone equivalents, FIG. 1
Experimental: The pharmacokinetics of compound 15 in rats following oral administration is tested as described in Table 15 below.
The results are summarized in FIG. 1 (The symbols in FIG. 1 have the following meanings: c (ng/mL) concentration in ng/mL, t (min) time in minutes). […] Entacapone concentration is shown in ng/mL, and time is shown in minutes.

[5] = Permeability in Caco-2 cells, apical to basolateral; assay type: in vitro ADME; parameters: dose or concentration left out as unconfirmed; details: human; 21d Caco-2 monolayer, apical pH 6.5 to basolateral pH 7.4, 60 minutes
Summary of the method: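 21-day Caco-2 monolayers dosed apically at 20 mM nominal test item concentration, apical pH 6.5, basolateral pH 7.4. Basolateral receiver sampled after 60 min and quantified by HPLC or LC-MS/MS; ³H-propranolol and ³H-mannitol controls sampled at 120 min and measured by scintillation.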

[6] = pH 1, 0.1 N HCl, read-out: t1/2 at pH 1 (converted)
[7] = pH 7.4, PBS buffer, read-out: t1/2 at pH 7.4 (converted)
[8] = Labrasol, oil or lipid, read-out: Solubility Labrasol ®
[9] = organic solvent or mixture, 25% by weight TPGS, 75% by weight PG, read-out: Solubility TPGS/PG

chromatographic logD [1] | half-life [2, 6] | half-life [2, 7] | solubility [3, 8] | solubility [3, 9] | plasma level of entacapone formed, compared with phosphate buffer formulation ([4]; Labrasol formulation) | plasma level of entacapone formed, compared with phosphate buffer formulation ([4]; TPGS/PG formulation) | Papp A→B at 60 min [5] | SMILES
1.4 | 28.9 h | 28.9 h | 10000 µg/mL (≈ 23.8 mM) | 1800 µg/mL (≈ 4.29 mM) | – | – | – | CCCC(C)OC(=O)Oc1cc(/C=C(\C#N)C(=O)N(CC)CC)cc([N+](=O)[O-])c1O (stereo not drawn) [Compound 63, Carbonic acid 5-((E)-2-cyano-2-diethylcarbamoyl-vinyl)-2-hydroxy-3-nitro-phenyl ester 1-methyl-butyl ester]
2.9 | 15.6 h | 7.2 h | 50000 µg/mL (≈ 108 mM) | 2400 µg/mL (≈ 5.2 mM) | more constant | more constant | – | CCCCC(CC)COC(=O)Oc1cc(/C=C(\C#N)C(=O)N(CC)CC)cc([N+](=O)[O-])c1O (stereo not drawn) [Compound 15, Carbonic acid 5-((E)-2-cyano-2-diethylcarbamoyl-vinyl)-2-hydroxy-3-nitro-phenyl ester 2-ethyl-hexyl ester]
3.1 | 14.4 h | 6.8 h | > 36000 µg/mL | 2300 µg/mL (≈ 4.98 mM) | – | – | > 42 ×10⁻⁶ cm/s | CCCCCCCCOC(=O)Oc1cc(/C=C(\C#N)C(=O)N(CC)CC)cc([N+](=O)[O-])c1O [Compound 35, Carbonic acid 5-((E)-2-cyano-2-diethylcarbamoyl-vinyl)-2-hydroxy-3-nitro-phenyl ester octyl ester]
2.3 | 16.5 h | 7.7 h | 22000 µg/mL (≈ 49.4 mM) | 2500 µg/mL (≈ 5.61 mM) | – | – | 55 ×10⁻⁶ cm/s | CCN(CC)C(=O)/C(C#N)=C/c1cc(OC(=O)OCC2CCCCC2)c(O)c([N+](=O)[O-])c1 [Compound 57, Carbonic acid 5-((E)-2-cyano-2-diethylcarbamoyl-vinyl)-2-hydroxy-3-nitro-phenyl ester cyclohexylmethyl ester]
